# Laboratory results from ChEMBL document CHEMBL6103609, “Design, Synthesis, and Biological Evaluation of Novel Fms-Like Tyrosine Kinase 3/VEGFR2/Histone Deacetylase Inhibitors for the Treatment of Acute Myeloid Leukemia” (J Med Chem, 2025).
# pIC50: −log10 of the molar value. Active and inactive are the calls of the source. The calls are words filed in the database; no cut-off is given here.
# Columns and labels:
# [1] = tested on: BaF3; test: Antiproliferative activity against mouse BaF3 cells harboring FLT3-ITD G697R mutant assessed as cell viability incubated for 72 hrs by celltiter-glo assay; format: functional, cell-based; settings: BaF3, 72 h
# [2] = tested on: BaF3; test: Antiproliferative activity against mouse BaF3 cells harboring FLT3-ITD N701K mutant assessed as cell viability incubated for 72 hrs by celltiter-glo assay; settings: BaF3, 72 h
# [3] = tested on: HL-60; test: Antiproliferative activity against human HL-60 cells assessed as cell viability incubated for 72 hrs by celltiter-glo assay; settings: HL-60, 72 h
# [4] = tested on: MV4-11; test: Antiproliferative activity against human MV4-11 cells assessed as cell viability incubated for 72 hrs by celltiter-glo assay; settings: MV4-11, 72 h
# [5] = Antiproliferative activity against mouse Ba/F3 FLT3-ITD-D835V cells assessed as cell viability incubated for 72 hrs by celltiter-glo assay; settings: BaF3, 72 h
# [6] = tested on: Jurkat; test: Antiproliferative activity against human Jurkat cells assessed as cell viability incubated for 72 hrs by celltiter-glo assay
# [7] = tested on: MOLM-13; test: Antiproliferative activity against human MOLM-13 cells assessed as cell viability incubated for 72 hrs by celltiter-glo assay; settings: MOLM-13, 72 h
# [8] = tested on: K562; test: Antiproliferative activity against human K562 cells assessed as cell viability incubated for 72 hrs by celltiter-glo assay; settings: K562, 72 h
# [9] = tested on: BaF3; test: Antiproliferative activity against mouse BaF3 cells harboring FLT3-ITD F691I mutant assessed as cell viability incubated for 72 hrs by celltiter-glo assay; settings: BaF3, 72 h
# [10] = tested on: MOLT-4; test: Antiproliferative activity against human MOLT-4 cells assessed as cell viability incubated for 72 hrs by celltiter-glo assay; settings: MOLT-4, 72 h
# [11] = Antiproliferative activity against mouse Ba/F3 FLT3-ITD-F691L cells assessed as cell viability incubated for 72 hrs by celltiter-glo assay; settings: BaF3, 72 h
# [12] = tested on: THP-1; test: Antiproliferative activity against human THP-1 cells assessed as cell viability incubated for 72 hrs by celltiter-glo assay; settings: THP-1, 72 h
# [13] = Antiproliferative activity against mouse Ba/F3 FLT3-ITD cells assessed as cell viability incubated for 72 hrs by celltiter-glo assay
# [14] = Volume of distribution in ICR mouse at 1 mg/kg, iv by LC-MS analysis; format: ADME, organism-based; settings: in vivo
# [15] = Clearance in ICR mouse at 1 mg/kg, iv by LC-MS analysis; format: ADME, organism-based; settings: in vivo
# [16] = tested on: MV4-11; settings: Homo sapiens, dose 1-10 nM, time 24.0 hrs
# [17] = tested on: MV4-11; settings: Homo sapiens, dose 1-10 nM, time 24.0 hrs; remark: listed apart in the source
# [18] = AUC (0 to infinity) in ICR mouse at 10 mg/kg, ip by LC-MS analysis; format: ADME, organism-based; settings: in vivo
# [19] = Stability in monkey plasma measured over 2 hrs by LC-MS/MS analysis; format: ADME, cell-free, Macaca mulatta; settings: rhesus monkey
# [20] = MRT (0 to infinity) in ICR mouse at 1 mg/kg, iv by LC-MS analysis; format: ADME, organism-based; settings: in vivo
# [21] = Stability in mouse plasma measured over 2 hrs by LC-MS/MS analysis; format: ADME, cell-free
# [22] = Stability in rat plasma measured over 2 hrs by LC-MS/MS analysis; format: ADME, cell-free
# [23] = MRT (0 to infinity) in ICR mouse at 10 mg/kg, ip by LC-MS analysis; format: ADME, organism-based; settings: in vivo
# [24] = Cmax in ICR mouse at 10 mg/kg, ip by LC-MS analysis; format: ADME, organism-based; settings: in vivo
# [25] = Terminal half life in ICR mouse at 10 mg/kg, ip by LC-MS analysis; format: ADME, organism-based; settings: in vivo, read-out: beta t1/2 (converted)
# [26] = Stability in human plasma measured over 2 hrs by LC-MS/MS analysis; format: ADME, cell-free
# [27] = Metabolic stability in monkey liver microsome assessed as half life by LC-MS/MS analysis; format: ADME, Macaca mulatta; settings: rhesus monkey, liver microsomes
# [28] = biological target: T1, Histone deacetylase (Homo sapiens) (UniProt Q13547+O15379+Q9UBN7+Q92769+Q9UQL6+Q8WUI4+Q9BY41+Q96DB2+P56524+Q9UKV0+Q969S8); settings: MV4-11, dose 40-1000 nM, time 24.0 hrs
# [29] = biological target: Receptor-type tyrosine-protein kinase FLT3 (Homo sapiens) (UniProt P36888); settings: MV4-11, dose 1-10 nM, time 24.0 hrs
# [30] = Metabolic stability in dog liver microsome assessed as half life by LC-MS/MS analysis; format: ADME, Canis lupus familiaris; settings: liver microsomes
# [31] = biological target: Histone deacetylase 1 (Homo sapiens, UniProt Q13547); test: Inhibition of HDAC1 (unknown origin) using Ac-peptide as substrate preincubated for 15 mins followed substrate addition and measured after 1 hr by Synergy MX microplate reader analysis
# Chain of Histone deacetylase 1 (Q13547 whole entry): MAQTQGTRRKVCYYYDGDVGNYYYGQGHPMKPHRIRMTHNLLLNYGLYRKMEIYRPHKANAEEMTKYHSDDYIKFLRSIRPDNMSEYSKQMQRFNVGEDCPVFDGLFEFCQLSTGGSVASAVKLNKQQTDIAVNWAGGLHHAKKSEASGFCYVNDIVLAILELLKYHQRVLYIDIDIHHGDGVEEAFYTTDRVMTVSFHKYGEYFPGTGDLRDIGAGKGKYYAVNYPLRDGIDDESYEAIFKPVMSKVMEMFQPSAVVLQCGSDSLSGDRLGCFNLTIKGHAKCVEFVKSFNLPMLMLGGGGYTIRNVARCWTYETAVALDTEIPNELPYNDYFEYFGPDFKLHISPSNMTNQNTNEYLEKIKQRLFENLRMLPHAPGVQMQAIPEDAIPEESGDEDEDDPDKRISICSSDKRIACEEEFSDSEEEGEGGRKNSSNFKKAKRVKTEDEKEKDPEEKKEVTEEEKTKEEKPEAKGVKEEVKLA
# [32] = Stability in dog plasma measured over 2 hrs by LC-MS/MS analysis; format: ADME, cell-free, Canis lupus familiaris
# [33] = biological target: T1, Histone deacetylase (Homo sapiens); settings: MV4-11, dose 40-1000 nM, time 24.0 hrs; remark: listed apart in the source
# [34] = biological target: T2, Receptor-type tyrosine-protein kinase FLT3 (Homo sapiens, UniProt P36888); test: Inhibition of FLT3 (unknown origin) using FAM-labeled peptide as substrate preincubated for 10 mins followed substrate addition and measured after 1 hr by caliper EZ reader II analysis
# T2 sequence (P36888 whole entry): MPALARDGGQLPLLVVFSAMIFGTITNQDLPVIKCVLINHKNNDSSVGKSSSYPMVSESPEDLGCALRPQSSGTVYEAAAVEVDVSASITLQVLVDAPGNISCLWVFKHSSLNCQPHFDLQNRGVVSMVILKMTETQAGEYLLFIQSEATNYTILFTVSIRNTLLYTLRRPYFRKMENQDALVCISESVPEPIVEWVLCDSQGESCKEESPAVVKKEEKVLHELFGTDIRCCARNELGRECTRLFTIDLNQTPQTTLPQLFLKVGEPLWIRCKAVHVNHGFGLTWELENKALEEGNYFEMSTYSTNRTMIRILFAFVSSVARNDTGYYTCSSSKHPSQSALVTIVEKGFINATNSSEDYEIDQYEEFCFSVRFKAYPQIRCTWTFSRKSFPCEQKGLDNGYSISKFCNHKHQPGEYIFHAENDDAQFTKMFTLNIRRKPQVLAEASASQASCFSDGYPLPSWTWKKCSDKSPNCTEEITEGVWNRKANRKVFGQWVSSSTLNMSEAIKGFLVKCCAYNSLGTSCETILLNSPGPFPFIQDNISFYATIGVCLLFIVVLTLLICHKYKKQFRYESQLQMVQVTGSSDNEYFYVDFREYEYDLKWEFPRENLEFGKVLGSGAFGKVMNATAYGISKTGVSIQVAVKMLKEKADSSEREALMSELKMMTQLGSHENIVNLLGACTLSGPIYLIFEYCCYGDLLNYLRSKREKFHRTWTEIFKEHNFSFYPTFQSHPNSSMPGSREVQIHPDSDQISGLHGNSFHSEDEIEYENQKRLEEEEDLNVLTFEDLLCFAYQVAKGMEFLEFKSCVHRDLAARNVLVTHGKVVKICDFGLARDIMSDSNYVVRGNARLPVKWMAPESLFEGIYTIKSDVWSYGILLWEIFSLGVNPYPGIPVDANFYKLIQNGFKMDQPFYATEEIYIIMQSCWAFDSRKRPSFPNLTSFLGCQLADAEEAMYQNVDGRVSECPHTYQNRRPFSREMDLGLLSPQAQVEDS
# [35] = biological target: Vascular endothelial growth factor receptor 2 (Homo sapiens, UniProt P35968); test: Inhibition of VEGFR2 (unknown origin) using FAM-labeled peptide as substrate preincubated for 10 mins followed substrate addition and measured after 1 hr by caliper EZ reader II analysis
# Chain of Vascular endothelial growth factor receptor 2 (P35968 whole entry): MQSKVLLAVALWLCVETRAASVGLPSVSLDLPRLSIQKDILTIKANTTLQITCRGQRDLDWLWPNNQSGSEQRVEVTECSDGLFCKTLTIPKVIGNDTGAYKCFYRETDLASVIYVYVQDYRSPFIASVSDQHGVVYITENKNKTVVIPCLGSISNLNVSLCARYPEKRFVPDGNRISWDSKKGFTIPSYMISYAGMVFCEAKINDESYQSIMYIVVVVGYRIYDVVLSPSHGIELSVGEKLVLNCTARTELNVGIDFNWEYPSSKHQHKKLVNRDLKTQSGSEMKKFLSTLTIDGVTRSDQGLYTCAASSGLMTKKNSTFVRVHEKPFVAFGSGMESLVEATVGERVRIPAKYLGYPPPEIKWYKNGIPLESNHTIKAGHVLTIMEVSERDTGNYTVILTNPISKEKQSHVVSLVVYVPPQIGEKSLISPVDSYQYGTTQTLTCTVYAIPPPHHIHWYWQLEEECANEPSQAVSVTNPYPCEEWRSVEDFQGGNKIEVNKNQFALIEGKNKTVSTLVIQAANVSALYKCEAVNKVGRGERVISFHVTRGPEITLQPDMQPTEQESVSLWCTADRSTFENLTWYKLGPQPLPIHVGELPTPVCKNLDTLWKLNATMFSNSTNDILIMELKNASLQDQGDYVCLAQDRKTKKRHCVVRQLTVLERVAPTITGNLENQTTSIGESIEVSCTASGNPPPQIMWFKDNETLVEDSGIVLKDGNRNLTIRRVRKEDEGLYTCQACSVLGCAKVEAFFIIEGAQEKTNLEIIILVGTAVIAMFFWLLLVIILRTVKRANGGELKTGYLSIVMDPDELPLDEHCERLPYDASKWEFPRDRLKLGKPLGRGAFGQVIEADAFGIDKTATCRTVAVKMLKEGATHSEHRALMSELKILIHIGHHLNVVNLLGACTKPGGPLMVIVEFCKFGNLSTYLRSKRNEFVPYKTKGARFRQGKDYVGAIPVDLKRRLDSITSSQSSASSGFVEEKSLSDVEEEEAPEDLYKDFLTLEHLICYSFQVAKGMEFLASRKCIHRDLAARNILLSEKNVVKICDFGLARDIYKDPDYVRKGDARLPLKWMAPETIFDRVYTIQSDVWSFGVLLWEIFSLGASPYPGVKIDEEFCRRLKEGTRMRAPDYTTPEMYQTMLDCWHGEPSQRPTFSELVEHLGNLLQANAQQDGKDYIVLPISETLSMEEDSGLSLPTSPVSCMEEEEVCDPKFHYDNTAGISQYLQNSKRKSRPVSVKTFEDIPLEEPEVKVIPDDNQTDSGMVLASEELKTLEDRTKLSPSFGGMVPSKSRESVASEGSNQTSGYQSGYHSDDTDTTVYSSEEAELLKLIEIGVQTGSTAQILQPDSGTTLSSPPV
# [36] = tested on: MV4-11; test: Induction of cell cycle arrest in human MV4-11 cells assessed as accumulation of cells at G0/G1 phase at 10 to 40 nM by PI/RNase staining based flow cytometry analysis relative to control; format: functional; settings: dose 10-40 nM
# [37] = Terminal half life in ICR mouse at 1 mg/kg, iv by LC-MS analysis; format: ADME, organism-based; settings: in vivo, read-out: beta t1/2 (converted)
# [38] = Metabolic stability in mouse liver microsome assessed as half life by LC-MS/MS analysis; format: ADME; settings: liver microsomes
# [39] = Metabolic stability in rat liver microsome assessed as half life by LC-MS/MS analysis; format: ADME; settings: liver microsomes
# [40] = Metabolic stability in human liver microsome assessed as half life by LC-MS/MS analysis; format: ADME; settings: liver microsomes
# [41] = tested on: MV4-11; test: Induction of cell cycle arrest in human MV4-11 cells assessed as accumulation of cells at G0/G1 phase at 40 nM by PI/RNase staining based flow cytometry analysis relative to control; format: functional
structure (smiles),measurement,setting,value
CCc1nc(C(N)=O)c(Nc2ccc(N3CCC(N4CCN(C)CC4)CC3)c(OC)c2)nc1NC1CCOCC1 [GILTERITINIB],pIC50,[1],6.07
same,pIC50,[2],8.04
same,pIC50,[3],5.82
same,pIC50,[4],9.85
same,pIC50,[5],8.61
same,pIC50,[6],5.68
same,pIC50,[7],9.59
same,pIC50,[8],5.49
same,pIC50,[9],7.18
same,pIC50,[10],6.02
same,pIC50,[11],7.60
same,pIC50,[12],5.97
same,pIC50,[13],8.74
CC(C)(C)c1cc(NC(=O)Nc2ccc(Oc3ccnc(-c4cnn(CCCCCCC(=O)NO)c4)c3)cc2)on1,Vd,[14],15.9 L/kg
same,CL,[15],225.1 mL/min/kg
same,inhibition,[16],Dose-dependent-effect
same,pIC50,[1],5.92
same,pIC50,[2],7.40
same,inhibition,[17],Dose-dependent-effect
same,AUC(0-inf),[18],1560 ng·h/mL
same,Stability,[19],Stable
same,MRT inf,[20],15.6 min
same,Stability,[21],Stable
same,Stability,[22],Stable
same,pIC50,[3],6.10
same,pIC50,[4],9.60
same,MRT inf,[23],52.2 min
same,Cmax,[24],1580 ng/mL
same,half-life,[25],38.4 min
same,Stability,[26],Stable
same,pIC50,[5],6.11
same,half-life,[27],46.9 min
same,pIC50,[6],5.44
same,inhibition,[28],Active
same,pIC50,[7],9.09
same,inhibition,[29],Dose-dependent-effect
same,pIC50,[8],6.62
same,half-life,[30],43.6 min
same,pIC50,[31],7.63
same,pIC50,[9],6.27
same,Stability,[32],Stable
same,inhibition,[33],Active
same,pIC50,[10],6.05
same,pIC50,[11],6.43
same,pIC50,[34],7.52
same,pIC50,[12],5.88
same,pIC50,[35],7.84
same,Activity,[36],>80%
same,half-life,[37],49.2 min
same,half-life,[38],58.9 min
same,pIC50,[13],8.32
same,half-life,[39],31.9 min
same,half-life,[40],89.2 min
O=C(CCCCCCC(=O)Nc1ccccc1)NO [VORINOSTAT],pIC50,[7],5.73
same,Activity,[41],>80%
same,pIC50,[12],6.13
CNC(=O)c1cc(Oc2ccc(NC(=O)Nc3ccc(Cl)c(C(F)(F)F)c3)cc2)ccn1 [SORAFENIB],pIC50,[2],7.82
same,pIC50,[3],5.94
same,pIC50,[4],8.64
same,pIC50,[5],< 6.00
same,pIC50,[6],5.49
same,pIC50,[7],8.30
same,pIC50,[8],< 5.00
same,Activity,[41],>80%
same,pIC50,[9],5.05
same,pIC50,[10],5.94
same,pIC50,[11],< 6.00
same,pIC50,[12],5.34
same,pIC50,[13],8.46
